Test results reported in paper PMC7925909, “The Multi-Level Mechanism of Action of a Pan-Ras Inhibitor Explains its Antiproliferative Activity on Cetuximab-Resistant Cancer Cells” (Frontiers in Molecular Biosciences, 2021).

What was measured:
HRas = biological target: T1, HRas (Homo sapiens, UniProt P01112); assay: STD-NMR and native MS of the HRas-GDP-cmp4 ternary complex; the EC50 is from SPR inhibition of RasGRF1 binding to HRas-GDP; mant-nucleotide dissociation/exchange also inhibited
T1 construct: N-terminal His-tagged, residues 1-166

HRas^G13D = biological target: T2, HRas^G13D (Homo sapiens, UniProt P01112, G13D); assay: STD-NMR on HRas G13D-GDP; dose-dependent inhibition of intrinsic and GEF-mediated mant-nucleotide dissociation/exchange; type: binding
T2 construct: N-terminal His-tagged, residues 1-166
T2 sequence (P01112 1-166 G13D): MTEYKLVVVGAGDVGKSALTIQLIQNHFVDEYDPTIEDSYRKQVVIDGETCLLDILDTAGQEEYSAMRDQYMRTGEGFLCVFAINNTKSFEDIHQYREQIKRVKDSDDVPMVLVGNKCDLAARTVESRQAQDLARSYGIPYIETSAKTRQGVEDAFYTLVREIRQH

T1 sequence (P01112 1-166): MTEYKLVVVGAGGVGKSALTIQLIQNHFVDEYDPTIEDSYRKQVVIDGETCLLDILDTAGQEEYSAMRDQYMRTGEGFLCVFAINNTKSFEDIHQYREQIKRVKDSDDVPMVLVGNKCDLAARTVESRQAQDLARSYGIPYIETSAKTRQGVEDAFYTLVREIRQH

With `OC[C@H]1O[C@@H](O[C@H]2[C@H](O)[C@@H](O)[C@H](N(Cc3ccc(O)c(O)c3)OCc3ccccc3)O[C@@H]2CO)[C@H](O)[C@@H](O)[C@H]1O` [cmp4] the EC50 (HRas) was ~170 µM and the “STD-NMR on HRas G13D-GDP; dose-dependent inhibition of intrinsic and GEF-mediate” value (HRas^G13D) was “STD analysis on HRas^G13D mutant protein saturated with cmp4 shows that cmp4 also interacts with the mutant protein”.
